From patent publication US20230111310A1, “CARBOXYLIC ACID DERIVATIVE-SUBSTITUTED IMINO ARYL COMPOUND, PREPARATION METHOD THEREFOR, HERBICIDAL COMPOSITION AND USE THEREOF” (Qingdao Kingagroot Chemical Compound Co., Ltd., priority 2020, published 2023)

Assays:
Experiment in all cases: Weeding effect in post-emergence stage
Format in all cases: in vivo
Conditions in all cases: level of fresh weight growth control rate
[1] = system: Abutilon theophrasti
Method in brief: (§1)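 Pot-grown weeds were sprayed at the 2-3 leaf stage, 2 weeks after sowing, with compound in acetone plus Tween 80 and 1.5 liter/ha methyl oleate emulsifiable concentrate, diluted in water. Doses were 500, 250, 125, 60, 30, 15, 7.5 g/ha. Growth control was scored after 3 weeks in greenhouse; mean of three replicates.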

[2] = system: Setaria viridis
Method in brief: as §1

[3] = system: Alopecurus japonicus
Method in brief: as §1

[4] = system: Digitaria sanguinalis
Method in brief: as §1

[5] = system: Eleusine indica
Method in brief: as §1

[6] = system: Echinochloa crusgalli
Method in brief: as §1

Row | Compound | Weeding effect in post-emergence stage, Abutilon theophrasti ([1]; Dose 15 g/ha) | Weeding effect in post-emergence stage, Setaria viridis ([2]; Dose 15 g/ha) | Weeding effect in post-emergence stage, Alopecurus japonicus ([3]; Dose 15 g/ha) | Weeding effect in post-emergence stage, Digitaria sanguinalis ([4]; Dose 15 g/ha) | Weeding effect in post-emergence stage, Eleusine indica ([5]; Dose 15 g/ha) | Weeding effect in post-emergence stage, Echinochloa crusgalli ([6]; Dose 15 g/ha) | other results
1 | CSCCOC(=O)C(C)O/N=C/c1cc(-n2c(=O)cc(C(F)(F)F)n(C)c2=O)c(F)cc1Cl (stereo not drawn) [Compound 234] | 5 (Level 5: growth control rate is above 85%) | 5 (Level 5: growth control rate is above 85%) | 5 (Level 5: growth control rate is above 85%) | 5 (Level 5: growth control rate is above 85%) | 5 (Level 5: growth control rate is above 85%) | 5 (Level 5: growth control rate is above 85%) | 
2 | CCCOC(=O)OC(=O)C(C)O/N=C/c1cc(-n2c(=O)cc(C(F)(F)F)n(C)c2=O)c(F)cc1Cl (stereo not drawn) [Compound 236] |  |  |  |  |  |  | Weeding effect in post-emergence stage, Abutilon theophrasti ([1]; Dose 60 g/ha): 5 (Level 5: growth control rate is above 85%); Weeding effect in post-emergence stage, Setaria viridis ([2]; Dose 60 g/ha): 5 (Level 5: growth control rate is above 85%); Weeding effect in post-emergence stage, Alopecurus japonicus ([3]; Dose 60 g/ha): 5 (Level 5: growth control rate is above 85%); Weeding effect in post-emergence stage, Digitaria sanguinalis ([4]; Dose 60 g/ha): 5 (Level 5: growth control rate is above 85%); Weeding effect in post-emergence stage, Eleusine indica ([5]; Dose 60 g/ha): 5 (Level 5: growth control rate is above 85%); Weeding effect in post-emergence stage, Echinochloa crusgalli ([6]; Dose 60 g/ha): 5 (Level 5: growth control rate is above 85%)
3 | CC(=O)COC(=O)C(C)O/N=C/c1cc(-n2c(=O)cc(C(F)(F)F)n(C)c2=O)c(F)cc1Cl (stereo not drawn) [Compound 238] | 5 (Level 5: growth control rate is above 85%) | 5 (Level 5: growth control rate is above 85%) | 5 (Level 5: growth control rate is above 85%) | 5 (Level 5: growth control rate is above 85%) | 5 (Level 5: growth control rate is above 85%) | 5 (Level 5: growth control rate is above 85%) | 
4 | CCOC(=O)COC(=O)C(C)O/N=C/c1cc(-n2c(=O)cc(C(F)(F)F)n(C)c2=O)c(F)cc1Cl (stereo not drawn) [Compound 239] | 5 (Level 5: growth control rate is above 85%) | 5 (Level 5: growth control rate is above 85%) | 5 (Level 5: growth control rate is above 85%) | 5 (Level 5: growth control rate is above 85%) | 5 (Level 5: growth control rate is above 85%) | 5 (Level 5: growth control rate is above 85%) | 
5 | COC(=O)CCOC(=O)C(C)O/N=C/c1cc(-n2c(=O)cc(C(F)(F)F)n(C)c2=O)c(F)cc1Cl (stereo not drawn) [Compound 240] |  |  |  |  |  |  | Weeding effect in post-emergence stage, Abutilon theophrasti ([1]; Dose 30 g/ha): 5 (Level 5: growth control rate is above 85%); Weeding effect in post-emergence stage, Setaria viridis ([2]; Dose 30 g/ha): 5 (Level 5: growth control rate is above 85%); Weeding effect in post-emergence stage, Alopecurus japonicus ([3]; Dose 30 g/ha): 5 (Level 5: growth control rate is above 85%); Weeding effect in post-emergence stage, Digitaria sanguinalis ([4]; Dose 30 g/ha): 5 (Level 5: growth control rate is above 85%); Weeding effect in post-emergence stage, Eleusine indica ([5]; Dose 30 g/ha): 5 (Level 5: growth control rate is above 85%); Weeding effect in post-emergence stage, Echinochloa crusgalli ([6]; Dose 30 g/ha): 5 (Level 5: growth control rate is above 85%)
6 | COC(=O)C(C)OC(=O)C(C)O/N=C/c1cc(-n2c(=O)cc(C(F)(F)F)n(C)c2=O)c(F)cc1Cl (stereo not drawn) [Compound 241] |  |  |  |  |  |  | Weeding effect in post-emergence stage, Abutilon theophrasti ([1]; Dose 30 g/ha): 5 (Level 5: growth control rate is above 85%); Weeding effect in post-emergence stage, Setaria viridis ([2]; Dose 30 g/ha): 5 (Level 5: growth control rate is above 85%); Weeding effect in post-emergence stage, Alopecurus japonicus ([3]; Dose 30 g/ha): 5 (Level 5: growth control rate is above 85%); Weeding effect in post-emergence stage, Digitaria sanguinalis ([4]; Dose 30 g/ha): 5 (Level 5: growth control rate is above 85%); Weeding effect in post-emergence stage, Eleusine indica ([5]; Dose 30 g/ha): 5 (Level 5: growth control rate is above 85%); Weeding effect in post-emergence stage, Echinochloa crusgalli ([6]; Dose 30 g/ha): 5 (Level 5: growth control rate is above 85%)
7 | COC(=O)C(C)(C)OC(=O)C(C)O/N=C/c1cc(-n2c(=O)cc(C(F)(F)F)n(C)c2=O)c(F)cc1Cl (stereo not drawn) [Compound 243] | 5 (Level 5: growth control rate is above 85%) | 5 (Level 5: growth control rate is above 85%) | 5 (Level 5: growth control rate is above 85%) | 5 (Level 5: growth control rate is above 85%) | 5 (Level 5: growth control rate is above 85%) | 5 (Level 5: growth control rate is above 85%) | 
8 | COC(=O)C(OC)OC(=O)C(C)O/N=C/c1cc(-n2c(=O)cc(C(F)(F)F)n(C)c2=O)c(F)cc1Cl (stereo not drawn) [Compound 245] |  |  |  |  |  |  | Weeding effect in post-emergence stage, Abutilon theophrasti ([1]; Dose 30 g/ha): 5 (Level 5: growth control rate is above 85%); Weeding effect in post-emergence stage, Setaria viridis ([2]; Dose 30 g/ha): 5 (Level 5: growth control rate is above 85%); Weeding effect in post-emergence stage, Alopecurus japonicus ([3]; Dose 30 g/ha): 5 (Level 5: growth control rate is above 85%); Weeding effect in post-emergence stage, Digitaria sanguinalis ([4]; Dose 30 g/ha): 5 (Level 5: growth control rate is above 85%); Weeding effect in post-emergence stage, Eleusine indica ([5]; Dose 30 g/ha): 5 (Level 5: growth control rate is above 85%); Weeding effect in post-emergence stage, Echinochloa crusgalli ([6]; Dose 30 g/ha): 5 (Level 5: growth control rate is above 85%)
9 | CCOC(=O)OC(C)OC(=O)C(C)O/N=C/c1cc(-n2c(=O)cc(C(F)(F)F)n(C)c2=O)c(F)cc1Cl (stereo not drawn) [Compound 246] | 5 (Level 5: growth control rate is above 85%) | 5 (Level 5: growth control rate is above 85%) | 5 (Level 5: growth control rate is above 85%) | 5 (Level 5: growth control rate is above 85%) | 5 (Level 5: growth control rate is above 85%) | 5 (Level 5: growth control rate is above 85%) | 
10 | CC(C)=NOC(=O)C(C)O/N=C/c1cc(-n2c(=O)cc(C(F)(F)F)n(C)c2=O)c(F)cc1Cl (stereo not drawn) [Compound 248] | 5 (Level 5: growth control rate is above 85%) | 5 (Level 5: growth control rate is above 85%) | 5 (Level 5: growth control rate is above 85%) | 5 (Level 5: growth control rate is above 85%) | 5 (Level 5: growth control rate is above 85%) | 5 (Level 5: growth control rate is above 85%) | 
11 | CC/C(C)=N/OC(=O)C(C)O/N=C/c1cc(-n2c(=O)cc(C(F)(F)F)n(C)c2=O)c(F)cc1Cl (stereo not drawn) [Compound 249] | 5 (Level 5: growth control rate is above 85%) | 5 (Level 5: growth control rate is above 85%) | 5 (Level 5: growth control rate is above 85%) | 5 (Level 5: growth control rate is above 85%) | 5 (Level 5: growth control rate is above 85%) | 5 (Level 5: growth control rate is above 85%) | 
12 | C/C(=N\OC(=O)C(C)O/N=C/c1cc(-n2c(=O)cc(C(F)(F)F)n(C)c2=O)c(F)cc1Cl)C(C)C (stereo not drawn) [Compound 250] | 5 (Level 5: growth control rate is above 85%) | 5 (Level 5: growth control rate is above 85%) | 5 (Level 5: growth control rate is above 85%) | 5 (Level 5: growth control rate is above 85%) | 5 (Level 5: growth control rate is above 85%) | 5 (Level 5: growth control rate is above 85%) | 
13 | CCC(CC)=NOC(=O)C(C)O/N=C/c1cc(-n2c(=O)cc(C(F)(F)F)n(C)c2=O)c(F)cc1Cl (stereo not drawn) [Compound 251] | 5 (Level 5: growth control rate is above 85%) | 5 (Level 5: growth control rate is above 85%) | 5 (Level 5: growth control rate is above 85%) | 5 (Level 5: growth control rate is above 85%) | 5 (Level 5: growth control rate is above 85%) | 5 (Level 5: growth control rate is above 85%) | 
14 | CCO/C(C)=N/OC(=O)C(C)O/N=C/c1cc(-n2c(=O)cc(C(F)(F)F)n(C)c2=O)c(F)cc1Cl (stereo not drawn) [Compound 252] | 5 (Level 5: growth control rate is above 85%) | 5 (Level 5: growth control rate is above 85%) | 5 (Level 5: growth control rate is above 85%) | 5 (Level 5: growth control rate is above 85%) | 5 (Level 5: growth control rate is above 85%) | 5 (Level 5: growth control rate is above 85%) | 
15 | COC/C(C)=N/OC(=O)C(C)O/N=C/c1cc(-n2c(=O)cc(C(F)(F)F)n(C)c2=O)c(F)cc1Cl (stereo not drawn) [Compound 253] | 5 (Level 5: growth control rate is above 85%) | 5 (Level 5: growth control rate is above 85%) | 5 (Level 5: growth control rate is above 85%) | 5 (Level 5: growth control rate is above 85%) | 5 (Level 5: growth control rate is above 85%) | 5 (Level 5: growth control rate is above 85%) | 
